Here are results for 1 compound from US6166000A, “Methods for preparation and use of 1α,24(S)-Dihydroxy vitamin . D.sub2” (priority 1995, dated 2000).

Series [1] has as its target T1, vitamin D serum binding protein (DBP) (Rattus norvegicus, UniProt P04276).
T1 sequence (P04276 17-476): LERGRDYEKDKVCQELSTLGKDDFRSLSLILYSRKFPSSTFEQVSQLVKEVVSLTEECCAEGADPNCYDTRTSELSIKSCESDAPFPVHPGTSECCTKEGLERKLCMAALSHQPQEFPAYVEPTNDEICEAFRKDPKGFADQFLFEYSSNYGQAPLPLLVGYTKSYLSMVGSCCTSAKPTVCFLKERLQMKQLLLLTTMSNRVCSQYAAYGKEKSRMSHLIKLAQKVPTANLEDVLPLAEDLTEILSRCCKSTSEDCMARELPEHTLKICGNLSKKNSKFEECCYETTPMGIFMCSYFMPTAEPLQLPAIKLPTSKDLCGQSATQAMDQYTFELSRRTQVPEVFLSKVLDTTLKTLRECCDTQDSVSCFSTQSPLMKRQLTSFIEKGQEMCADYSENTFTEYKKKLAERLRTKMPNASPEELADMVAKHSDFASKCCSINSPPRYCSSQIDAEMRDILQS
Briefly: Affinity for vitamin D serum binding protein using vitamin D deficient rat serum. As to conditions: in words. The source says:
In addition, the weak binding by the DBP was indicative of more rapid clearance, allowing for low toxicity.

Series [2] relates to postmenopausal osteoporotic out-patients. Briefly: Preventive treatment of bone mass loss in postmenopausal osteoporotic women. The format is in vivo, human. The note with it: at or above 1.0 μg/day, 24 to 36 months. As for the experimental part: A clinical study is conducted with postmenopausal osteoporotic out-patientshaving ages between 55 and 75 years. The study involves up to 120 patients randomly divided into three treatment groups and continues for 24 to 36 months. Two of the treatment groups receive constant dosages of 1α,24(S)-dihydroxy vitamin D2 (u.i.d.; two different dose levels at or above 1.0 μg/day) and the other group receives a matching placebo. All patients maintain a normal intake of dietary calcium (500 to 800 mg/day) and refrain from using calcium supplements. Efficacy is evaluated by pre-and post-treatment comparisons of the patient groups with regard to (a) total body calcium retention, and (b) radial and spinal bone mineral density as determined by dual-photon absorptiometry (DPA) or dual-energy x-ray absorptiometry (DEXA). Safety is evaluated by comparisons of urinary hydroxyproline excretion, serum and urine calcium levels, creatinine. clearance, blood urea nitrogen, and other routine determinations.

Series [3] addresses T2, bovine thymus VDR (Bos taurus, UniProt Q28037).
T2 construct: commercially available kit of bovine thymus VDR; purchased Incstar (Stillwater, Minn.); host or cells: bovine thymus
T2 sequence (Q28037 1-426): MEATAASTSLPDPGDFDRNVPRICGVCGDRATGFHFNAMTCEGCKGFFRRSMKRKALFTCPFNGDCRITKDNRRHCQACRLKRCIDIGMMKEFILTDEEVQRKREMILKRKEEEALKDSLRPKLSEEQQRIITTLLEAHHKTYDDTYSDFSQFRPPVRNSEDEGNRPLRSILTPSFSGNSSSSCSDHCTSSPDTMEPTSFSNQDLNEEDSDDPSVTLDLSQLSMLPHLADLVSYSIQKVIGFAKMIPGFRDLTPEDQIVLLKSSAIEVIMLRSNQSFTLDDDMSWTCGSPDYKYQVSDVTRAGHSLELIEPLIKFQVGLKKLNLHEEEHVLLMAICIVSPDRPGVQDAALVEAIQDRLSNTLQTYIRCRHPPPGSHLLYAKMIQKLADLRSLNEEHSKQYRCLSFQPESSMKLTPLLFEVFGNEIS
Description: Radioreceptor assay, displacement of 3H-1α,25-(OH)2 D3 tracer (Incstar kit). It is filed as binding. As to conditions: in words. An excerpt: Purified 1α,24(S)-(OH)2 D2 was quantitated by photodiode array spectrophotometry and assayed in the radioreceptor assay.
The purified 1α,24(R)-(OH)2 D2 and 1α,24(S)-(OH)2 D2 epimers were quantitated by ultraviolet spectroscopy. The concentration of 1α,24(R)-(OH)2 D2 required to produce the same displacement of ^3 H-1α,25-(OH)2 D3 tracer from the receptor was 20 to 30 times that required for 1α,24(S)-(OH)2 D2, as shown in FIG. 4.
In general terms: In a radioligand displacement assay an active substance lowers the binding of a labelled ligand.

For series [4], the system named is men and women with renal disease undergoing chronic hemodialysis. Briefly: Management of hypocalcemia and metabolic bone disease in chronic hemodialysis patients. The format is in vivo, human. The note with it: greater than 3.0 μg/day, twelve months; double-isotope technique. The procedure: A twelve-month, double-blind, placebo-controlled clinical trial is conducted with thirty men and women with renal disease who are undergoing chronic hemodialysis. […] Efficacy is evaluated by pre- and post-treatment comparisons of the two patient groups with regard to (a) direct measurements of intestinal calcium absorption, (b) total body calcium retention, (c) radial and spinal bone mineral density, or (d) determinations of serum calcium. Safety is evaluated by regular monitoring of serum calcium.

Series [5] deals with Hep 3B cells. Description: Metabolite production in Hep 3B cells incubated with 1α-OH-D2. The format is in vitro ADME, human. As to conditions: Experiment 2, photodiode array spectrophotometry. The procedure:
Substantially pure 1α-(OH)D2 was obtained from Bone Care International, Inc. of Madison, Wis. The 1α-(OH)D2 was cultured for 48 hours with cells derived from a human hepatoma, Hep 3B, in medium devoid of fetal calf serum using known methods in the art.
Lipid extracts of the combined medium and cells were generated by known methods in the art and were subjected to high pressure liquid chromatography (HPLC) on Zorbax-S1L developed with hexane/isopropanol/methanol (91:7:2). The putative 1α,24(?)-(OH)2 D2 metabolite eluted between the parent 1α-(OH)D2 and standard 1α,25-(OH)2 D2 (also obtained from Bone Care International, Inc. of Madison, Wis.). (As used herein, the term "1α,24(?)-(OH)2 D2 " is meant to indicate that the epimeric form has not been identified.) The 1α,24(?)-(OH)2 D2 was further purified by this HPLC system before the metabolite's identification was undertaken using mass spectrometry analysis.
Hep 3B cells were incubated with 1α-OH-D2, as described above, at final concentrations of 1, 10, or 100 nM (Experiment 1), and 1 or 10 μM (Experiment 2) and 1α,24(S)-(OH)2 D2 was extracted and purified. The 1α,24(S)-(OH)2 D2 and 1α,25-(OH)2 D2 metabolites were quantitated by recovered radiolabel (Experiment 1) or by photodiode array spectrophotometry (Experiment 2).

Series [6] concerns postmenopausal osteoporotic women. Briefly: Dose ranging study in postmenopausal osteoporotic women. It is filed as in vivo, human. The note with it: oral 0.5 to 8.0 μg/day, escalated weekly over five weeks. As for the experimental part:
Twenty postmenopausal osteoporotic women are enrolled in an open label study.
On admission to the study, all patients receive instruction on selecting a daily diet containing 400 to 600 mg of calcium. Compliance to this diet is verified at weekly intervals by 24-hour food records and by interviews with each patient.
All patients complete a one-week baseline period, a five-week treatment period, and a one-week post-treatment observation period. During the treatment period, patients orally self-administer 1α,24(S)-dihydroxyvitamin D2 at an initial dose of 0.5 μg/day for the first week, and at successively higher doses of 1.0, 2.0, 4.0, and 8.0 μg/day in each of the following four weeks. All doses are administered before breakfast.
Blood and urine chemistries are monitored on a weekly basis throughout the study. Key blood chemistries include fasting serum levels of-calcium, phosphorus, osteocalcin, creatinine, and blood urea nitrogen. Key urine chemistries include 24-hour excretion of calcium, phosphorus, and creatinine.

Entries after “also recorded” stand apart in the source; their conditions may differ.

Take `C=C1/C(=C\C=C2/CCC[C@]3(C)[C@@H]([C@H](C)/C=C/[C@@](C)(O)C(C)C)CC[C@@H]23)C[C@@H](O)C[C@@H]1O` [1α,24(S)-(OH)2 D2, 1α,24(S)-dihydroxy Vitamin D2]: in series [1], the “binding affinity for the vitamin D serum binding protein” value is listed as “more weakly than does 1,25-(OH)2 D3”. Moreover, in series [2], the “incidence of hypercalcemia or hypercalciuria, or any other metabolic disturbance” value is listed as “insignificant incidence”; the “total body calcium, and radial and spinal bone densities relative to placebo” value is given as “significantly higher”. Besides, the “affinity for VDR relative to 1α,25-(OH)2 D3” value in series [3] is “two-fold less competitive; also recorded: two-fold lower affinity”. In addition, the intestinal calcium absorption result in series [4] is “significantly increases”. The “Rate of Production” value in series [5] (substrate 1α-OH-D2 1 μM) is recorded as 4.9 pmol per 10^6 cells/day. For the same compound, in series [5] (substrate 1α-OH-D2 10 μM), the “Rate of Production” value came to 59 pmol per 10^6 cells/day. In series [6], the “routinely monitored serum parameters” value is recorded as “no effect”, the serum osteocalcin levels result is on record as “increases” and the “urinary excretion of hydroxyproline” value is given as “nor does it increase”.
